Reference: PubChem BioAssay (NCI)
Where “and” joins values, the source holds several entries; their conditions need not be identical. Equal values may be shown once.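 In this assay, cells in 96-well plates receive the compound at five concentrations for 48 hours. Endpoints are linearly interpolated between the surrounding concentrations. The concentration for 50% growth inhibition is given as GI50. Definition used: TGI = concentration required for complete inhibition of growth.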

Tests used:
Assay in all cases: NCI anticancer screen, dose series, 48 h; in the data active = GI50 below about 0.43 µM; inactive = the rest
SK-MEL-2 melanoma = system: SK-MEL-2 melanoma
OVCAR-3 ovarian = system: OVCAR-3 ovarian
DU-145 prostate = system: DU-145 prostate
HL-60(TB) leukemia = system: HL-60(TB) leukemia
SK-OV-3 ovarian = system: SK-OV-3 ovarian
EKVX NSCLC = system: EKVX NSCLC
T-47D breast = system: T-47D breast
HT29 colon = system: HT29 colon
MALME-3M melanoma = system: MALME-3M melanoma
NCI/ADR-RES ovarian = system: NCI/ADR-RES ovarian
SNB-19 CNS = system: SNB-19 CNS
U251 CNS = system: U251 CNS
LOX IMVI melanoma = system: LOX IMVI melanoma
K-562 leukemia = system: K-562 leukemia
UO-31 renal = system: UO-31 renal
MCF7 breast = system: MCF7 breast
SK-MEL-28 melanoma = system: SK-MEL-28 melanoma
KM12 colon = system: KM12 colon
COLO 205 colon = system: COLO 205 colon
HCC-2998 colon = system: HCC-2998 colon
UACC-257 melanoma = system: UACC-257 melanoma
BT-549 breast = system: BT-549 breast
NCI-H23 lung = system: NCI-H23 lung
RPMI-8226 leukemia = system: RPMI-8226 leukemia
NCI-H522 lung = system: NCI-H522 lung
PC-3 prostate = system: PC-3 prostate
HOP-92 NSCLC = system: HOP-92 NSCLC
OVCAR-5 ovarian = system: OVCAR-5 ovarian
CAKI-1 renal = system: CAKI-1 renal
HOP-62 NSCLC = system: HOP-62 NSCLC
MOLT-4 leukemia = system: MOLT-4 leukemia
SK-MEL-5 melanoma = system: SK-MEL-5 melanoma
OVCAR-8 ovarian = system: OVCAR-8 ovarian
UACC-62 melanoma = system: UACC-62 melanoma
MDA-MB-435 = system: MDA-MB-435
SN12C renal = system: SN12C renal
786-0 renal = system: 786-0 renal
RXF 393 renal = system: RXF 393 renal
HS 578T breast = system: HS 578T breast
A498 renal = system: A498 renal
MDA-N = system: MDA-N
HCT-116 colon = system: HCT-116 colon
SF-539 CNS = system: SF-539 CNS
CCRF-CEM leukemia = system: CCRF-CEM leukemia
ACHN renal = system: ACHN renal
SW-620 colon = system: SW-620 colon
MDA-MB-231 breast = system: MDA-MB-231 breast
OVCAR-4 ovarian = system: OVCAR-4 ovarian
SNB-75 CNS = system: SNB-75 CNS
SR leukemia = system: SR leukemia
HCT-15 colon = system: HCT-15 colon
A549 NSCLC = system: A549 NSCLC
SF-268 CNS = system: SF-268 CNS
SF-295 CNS = system: SF-295 CNS
TK-10 renal = system: TK-10 renal
NCI-H226 lung = system: NCI-H226 lung
M14 melanoma = system: M14 melanoma
IGROV1 ovarian = system: IGROV1 ovarian
NCI-H460 lung = system: NCI-H460 lung

COC(=O)c1ccc2cc(O)c(O)cc2c1
> 96.7 µM: TGI (UACC-257 melanoma)
> 81.1 µM: TGI (SF-268 CNS)
> 100 µM: TGI (SK-MEL-2 melanoma) | TGI (OVCAR-3 ovarian) | TGI (DU-145 prostate) | TGI (HL-60(TB) leukemia) | TGI (SK-OV-3 ovarian) | TGI (EKVX NSCLC) | TGI (T-47D breast) | TGI (HT29 colon) | TGI (SNB-19 CNS) | TGI (U251 CNS) | TGI (LOX IMVI melanoma) | TGI (K-562 leukemia) | TGI (MCF7 breast) | TGI (SK-MEL-28 melanoma) | TGI (KM12 colon) | TGI (COLO 205 colon) | TGI (HCC-2998 colon) | TGI (RPMI-8226 leukemia) | TGI (PC-3 prostate) | TGI (HOP-92 NSCLC) | TGI (OVCAR-5 ovarian) | TGI (CAKI-1 renal) | TGI (HOP-62 NSCLC) | TGI (MDA-MB-435) | TGI (SN12C renal) | TGI (786-0 renal) | TGI (RXF 393 renal) | TGI (HS 578T breast) | TGI (A498 renal) | TGI (MDA-N) | TGI (HCT-116 colon) | TGI (SF-539 CNS) | TGI (ACHN renal) | TGI (SW-620 colon) | TGI (MDA-MB-231 breast) | TGI (OVCAR-4 ovarian) | TGI (SNB-75 CNS) | TGI (HCT-15 colon) | TGI (A549 NSCLC) | TGI (SF-295 CNS) | TGI (TK-10 renal) | TGI (NCI-H226 lung) | TGI (M14 melanoma) | TGI (IGROV1 ovarian)
> 78.2 µM: TGI (NCI/ADR-RES ovarian)
> 79.3 µM: TGI (UACC-62 melanoma)
> 60.4 µM: TGI (CCRF-CEM leukemia)
> 79 µM: TGI (MALME-3M melanoma)
> 90.6 µM: TGI (BT-549 breast)
> 91.3 µM: TGI (OVCAR-8 ovarian)
> 68.8 µM: TGI (MOLT-4 leukemia)
55.3 µM: TGI (UO-31 renal)
> 70.2 µM: TGI (SK-MEL-5 melanoma)
> 60 µM: TGI (SR leukemia)
> 64.7 µM: TGI (NCI-H522 lung)
> 82 µM: TGI (NCI-H23 lung)

CC(=O)c1c(-c2ccc(Cl)cc2)c(C#N)c(=S)n(C2OC(CO)C(O)C(O)C2O)c1-c1ccccc1 (configuration not stated)
61.8 µM and > 100 µM: TGI (SR leukemia)
> 100 µM and 74.1 µM: TGI (HOP-92 NSCLC)
29.2 µM and > 100 µM: TGI (MOLT-4 leukemia)
99.5 µM and > 100 µM: TGI (CCRF-CEM leukemia)
inactive: GI50 (SK-MEL-2 melanoma) > 84.5 µM and 35 µM | GI50 (HL-60(TB) leukemia) 30.9 µM and 62.2 µM | GI50 (EKVX NSCLC) 99.7 µM and 22.2 µM | GI50 (SNB-19 CNS) 34.8 µM and > 100 µM | GI50 (U251 CNS) 42.8 µM and > 100 µM | GI50 (LOX IMVI melanoma) 15.9 µM and > 100 µM | GI50 (K-562 leukemia) 26 µM and > 100 µM | GI50 (COLO 205 colon) 47.3 µM and > 100 µM | GI50 (PC-3 prostate) 7.97 µM and 58.6 µM | GI50 (OVCAR-5 ovarian) > 100 µM | GI50 (HOP-62 NSCLC) 39.8 µM and > 100 µM | GI50 (SK-MEL-5 melanoma) 31.8 µM and > 100 µM | GI50 (UACC-62 melanoma) 4.85 µM and 21.9 µM | GI50 (786-0 renal) 48.8 µM and > 100 µM | GI50 (A498 renal) > 100 µM and 49.7 µM | GI50 (HCT-116 colon) 17.4 µM and > 100 µM | GI50 (SF-539 CNS) > 100 µM | GI50 (CCRF-CEM leukemia) 13.1 µM and 55.4 µM | GI50 (MDA-MB-231 breast) > 22.6 µM and 76.3 µM | GI50 (OVCAR-4 ovarian) > 86.4 µM and 14.7 µM | GI50 (A549 NSCLC) 46.7 µM and > 100 µM
> 100 µM: TGI (SK-MEL-2 melanoma) | TGI (OVCAR-3 ovarian) | TGI (DU-145 prostate) | TGI (HL-60(TB) leukemia) | TGI (SK-OV-3 ovarian) | TGI (EKVX NSCLC) | TGI (T-47D breast) | TGI (HT29 colon) | TGI (MALME-3M melanoma) | TGI (NCI/ADR-RES ovarian) | TGI (SNB-19 CNS) | TGI (U251 CNS) | TGI (LOX IMVI melanoma) | TGI (K-562 leukemia) | TGI (MCF7 breast) | TGI (SK-MEL-28 melanoma) | TGI (KM12 colon) | TGI (COLO 205 colon) | TGI (HCC-2998 colon) | TGI (UACC-257 melanoma) | TGI (BT-549 breast) | TGI (NCI-H23 lung) | TGI (RPMI-8226 leukemia) | TGI (NCI-H522 lung) | TGI (PC-3 prostate) | TGI (OVCAR-5 ovarian) | TGI (CAKI-1 renal) | TGI (HOP-62 NSCLC) | TGI (SK-MEL-5 melanoma) | TGI (NCI-H460 lung) | TGI (OVCAR-8 ovarian) | TGI (UACC-62 melanoma) | TGI (MDA-MB-435) | TGI (SN12C renal) | TGI (786-0 renal) | TGI (RXF 393 renal) | TGI (HS 578T breast) | TGI (A498 renal) | TGI (MDA-N) | TGI (HCT-116 colon) | TGI (SF-539 CNS) | TGI (ACHN renal) | TGI (SW-620 colon) | TGI (MDA-MB-231 breast) | TGI (OVCAR-4 ovarian) | TGI (SNB-75 CNS) | TGI (HCT-15 colon) | TGI (A549 NSCLC) | TGI (SF-268 CNS) | TGI (SF-295 CNS) | TGI (TK-10 renal) | TGI (NCI-H226 lung) | TGI (M14 melanoma) | TGI (IGROV1 ovarian)
